Measurements: publication PMC12656546, “Enterohepatic Recirculation-Mediated Reabsorption of Aristolochic Acid I: Revealed by Toxicokinetics and Metabolite Identification in Rats” (Toxics, 2025)
Values joined by “and” are separate entries in the source; they are usually repeats but may differ in a detail not shown here. Equal values may be shown once.

Legend:
[1] = Toxicokinetic study of AAI after single oral administration (plasma, UPLC-QQQ-MS/MS, NCA); assay type: in vivo, F344 rats; details: for t1/2 / tmax / AUC0→t / CL/F / Cmax / Vd: individual pooled profiles (animal pairs), Table S4
Description: For toxicokinetic study, forty-eight […] F344 rats (specific pathogen-free grade) were enrolled in the study, with equal numbers of males and females. All rats were purchased from Charles River Laboratory (Raleigh, NC, USA). All rats were confirmed to be healthy based on a series of physical health examinations. Rats were acclimated for 5 days at a temperature of 20–26 °C, humidity of 40–70% and a 12 h light/dark circle. The rats were randomly divided into four groups (n = 12 per group), with equal numbers of males and females in each group. The allocation was performed separately for each sex (female and male) based on body weight using a stratified randomization method. During the experiment, rats were fasted and had access to water ad libitum. To minimize confounding factors, treatments and measurements were randomized within each session. Cages from different groups were evenly distributed across racks in the same room to reduce bias from light and temperature. This study was approved by the Institutional Animal Care and Use Committee (IACUC) of the National Drug Safety Evaluation Center (Approval No. IACUC-2024-K011, 20 September 2024).
During the experiment, each rat received a single oral administration via gastric gavage. Rats in the control group were administered with 0.5% sodium carboxymethyl cellulose (CMC-Na) suspension. For the treatment groups, rats were administered with gavage solution containing 10, 30 and 100 mg/kg of AAI. The gavage solution was prepared by uniformly dispersing the reference standard of AAI in the 0.5% CMC-Na solution. After oral administration, blood samples were collected from the postorbital vein plex of rats and immediately placed in EDTA tubes. To capture potential reabsorption which might occur long after AAI administration, 15 blood sampling time points were established for each dose group. A sparse sampling approach was employed to avoid excessive blood loss in each rat. For each dosage, 12 rats were subdivided into two groups. For the first group, blood samples were collected from 6 rats at 10, 30, 60, 90, 120, 240, 420, and 600 min after AAI administration; for the second group, blood samples were collected from these 6 rats at 12, 14, 16, 18, 20, 22, and 24 h after AAI administration. Therefore, the experimental design ensured that six biological replicates were obtained for each sampling time point, enabling robust toxicokinetic analysis.
Rat plasma samples were prepared as follows: Blood was centrifuged at 13,200 rpm for 10 min. Then, 25 μL of retrieved plasma was transferred to 2 mL centrifuge tubes, followed by the addition of 75 μL of methanol/acetonitrile solution (v/v, 1∶1) containing indomethacin as internal standard (IS). After vortexing for 2 min and centrifugation for 10 min at 13,200 rpm, the supernatant was used as study samples for quantitative analysis. Quality control samples (QCs) and calibration standards were prepared by spiking blank plasma with different concentrations of AAI standard solution. The QCs and calibration standards were processed using identical procedures as the study samples.
A method of ultra-performance liquid chromatography coupled with triple quadrupole tandem mass spectrometry (UPLC-QQQ-MS/MS) was developed to achieve the quantitation of AAI in rat plasma. The LC-MS/MS analysis was performed using an Acquity UPLC I-Class system coupled with an Xevo TQ XS spectrometer (Waters, Milford, MA, USA). An Acquity UPLC BEH C18 column (2.1 mm × 50 mm, 1.7 μm, Waters, Milford, MA, USA) was employed for chromatographic separation. The mobile phases consisted of water containing 5 mmol/L ammonium formate/0.1% formic acid (A) and acetonitrile (B). The gradient elution was set as follows: 1–4 min, 10–90% B; 4–5 min, 90% B; 5–5.01 min, 90–10% B; 5.01–7 min, 10% B. The flow rate was set at 0.4 mL/min. The column temperature was maintained at 40 °C. A sample volume of 2 μL was injected for analysis. […]

[2] = system: Caco-2 monolayers; details: cited from earlier work
[3] = high-dose (100 mg/kg), 100 mg/kg
[4] = medium-dose (30 mg/kg), 30 mg/kg
[5] = oral dose from 30 mg/kg to 100 mg/kg (3.33-fold)

Q: With `COc1cccc2c1cc([N+](=O)[O-])c1c(C(=O)O)cc3c(c12)OCO3` [AAI, Aristolochic acid I] as the compound, how does the t1/2 [1, 3] read?
A: 20.86 h and 3.11 h and 2.58 h and 3.83 h and 2.80 h and 2.72 h

Q: What about the tmax [1, 3] of the same compound?
A: 1.00 h

Q: What about the “sex-dependent difference in systemic exposure” value ([1]; high-dose and medium-dose groups, female vs male rats) of the same compound?
A: female rats exhibited higher systemic exposure compared to males

Q: What about the AAI plasma concentration ([1]; low-dose (10 mg/kg oral), 18 h, individual rats M104,M105,M106,F104,F105,F106, below LLOQ set to zero) of the same compound?
A: 0.00 ng/mL

Q: And the AAI plasma concentration ([1]; low-dose (10 mg/kg oral), 20 h, individual rats M104,M105,M106,F104,F105,F106, below LLOQ set to zero)?
A: 0.00 ng/mL

Q: What about the AAI plasma concentration ([1]; low-dose (10 mg/kg oral), 22 h, individual rats M104,M105,M106,F104,F105,F106, below LLOQ set to zero) of the same compound?
A: 0.00 ng/mL

Q: What about the AAI plasma concentration ([1]; low-dose (10 mg/kg oral), 24 h, individual rats M104,M105,M106,F104,F105,F106, below LLOQ set to zero) of the same compound?
A: 0.00 ng/mL

Q: What about the AUC0→t ([1]; low-dose (10 mg/kg), 10 mg/kg) of the same compound?
A: 1221.57 ng·h/mL and 1055.94 ng·h/mL and 876.13 ng·h/mL and 990.96 ng·h/mL

Q: What about the CL/F ([1]; low-dose (10 mg/kg), 10 mg/kg) of the same compound?
A: 1.53 L/h and 1.06 L/h and 1.82 L/h and 1.98 L/h and 1.38 L/h and 2.17 L/h

Q: What about the Cmax ([1]; low-dose (10 mg/kg), 10 mg/kg) of the same compound?
A: 361.73 ng/mL and 436.18 ng/mL and 640.11 ng/mL and 496.76 ng/mL and 247.55 ng/mL

Q: What about the Vd ([1]; low-dose (10 mg/kg), 10 mg/kg) of the same compound?
A: 2.67 L and 1.53 L and 3.03 L and 4.74 L and 1.21 L and 6.96 L

Q: What about the t1/2 ([1]; low-dose (10 mg/kg), 10 mg/kg) of the same compound?
A: 1.00 h and 1.15 h and 1.66 h and 0.61 h and 1.21 h and 2.23 h

Q: What about the tmax ([1]; low-dose (10 mg/kg), 10 mg/kg) of the same compound?
A: 0.17 h

Q: And the AAI plasma concentration ([1]; medium-dose (30 mg/kg oral), 0.167 h, individual rats M201,M202,M203,F201,F202,F203, 30 mg/kg)?
A: 677.97 ng/mL and 891.85 ng/mL and 775.45 ng/mL and 694.87 ng/mL and 747.04 ng/mL and 424.53 ng/mL

Q: And the AAI plasma concentration ([1]; medium-dose (30 mg/kg oral), 0.5 h, individual rats M201,M202,M203,F201,F202,F203, 30 mg/kg)?
A: 2114.14 ng/mL and 2496.11 ng/mL and 2604.27 ng/mL and 3133.29 ng/mL and 2919.69 ng/mL and 1424.98 ng/mL

Q: And the AAI plasma concentration ([1]; medium-dose (30 mg/kg oral), 1 h, individual rats M201,M202,M203,F201,F202,F203, 30 mg/kg)?
A: 1312.37 ng/mL and 2360.84 ng/mL and 2630.67 ng/mL and 814.02 ng/mL and 1128.36 ng/mL and 777.08 ng/mL

Q: And the AAI plasma concentration ([1]; medium-dose (30 mg/kg oral), 1.5 h, individual rats M201,M202,M203,F201,F202,F203, 30 mg/kg)?
A: 508.51 ng/mL and 594.78 ng/mL and 649.03 ng/mL and 685.24 ng/mL and 712.70 ng/mL

Q: And the AAI plasma concentration ([1]; medium-dose (30 mg/kg oral), 2 h, individual rats M201,M202,M203,F201,F202,F203, 30 mg/kg)?
A: 634.01 ng/mL and 354.12 ng/mL and 602.07 ng/mL and 438.37 ng/mL and 724.22 ng/mL and 539.10 ng/mL

Q: What about the AAI plasma concentration ([1]; medium-dose (30 mg/kg oral), 4 h, individual rats M201,M202,M203,F201,F202,F203, 30 mg/kg) of the same compound?
A: 90.61 ng/mL and 161.84 ng/mL and 196.08 ng/mL and 93.85 ng/mL and 264.87 ng/mL and 468.11 ng/mL

Q: What about the AAI plasma concentration ([1]; medium-dose (30 mg/kg oral), 7 h, individual rats M201,M202,M203,F201,F202,F203, 30 mg/kg) of the same compound?
A: 72.74 ng/mL and 83.75 ng/mL and 104.71 ng/mL and 69.29 ng/mL and 131.52 ng/mL and 64.74 ng/mL

Q: What about the AAI plasma concentration ([1]; medium-dose (30 mg/kg oral), 10 h, individual rats M201,M202,M203,F201,F202,F203, 30 mg/kg) of the same compound?
A: 26.96 ng/mL and 52.18 ng/mL and 50.62 ng/mL and 70.78 ng/mL and 76.59 ng/mL and 58.20 ng/mL

Q: And the AAI plasma concentration ([1]; medium-dose (30 mg/kg oral), 12 h, individual rats M204,M205,M206,F204,F205,F206, 30 mg/kg)?
A: 1.92 ng/mL and 6.45 ng/mL and 1.24 ng/mL and 2.81 ng/mL and 3.93 ng/mL and 3.49 ng/mL

Q: What about the AAI plasma concentration ([1]; medium-dose (30 mg/kg oral), 14 h, individual rats M204,M205,M206,F204,F205,F206, 30 mg/kg) of the same compound?
A: 2.74 ng/mL and 3.87 ng/mL and 2.17 ng/mL and 2.87 ng/mL

Q: What about the AAI plasma concentration ([1]; medium-dose (30 mg/kg oral), 16 h, individual rats M204,M205,M206,F204,F205,F206, 30 mg/kg) of the same compound?
A: 0.61 ng/mL and 2.32 ng/mL and 0.38 ng/mL and 4.36 ng/mL and 5.23 ng/mL and 10.35 ng/mL

Q: And the AAI plasma concentration ([1]; medium-dose (30 mg/kg oral), 18 h, individual rats M204,M205,M206,F204,F205,F206, 30 mg/kg)?
A: 0.83 ng/mL and 5.49 ng/mL and 0.29 ng/mL and 6.28 ng/mL and 4.31 ng/mL and 13.62 ng/mL

Q: What about the AAI plasma concentration ([1]; medium-dose (30 mg/kg oral), 20 h, individual rats M204,M205,M206,F204,F205,F206, 30 mg/kg) of the same compound?
A: 0.91 ng/mL and 3.14 ng/mL and 0.30 ng/mL and 7.63 ng/mL and 13.88 ng/mL and 9.00 ng/mL

Q: And the AAI plasma concentration ([1]; medium-dose (30 mg/kg oral), 22 h, individual rats M204,M205,M206,F204,F205,F206, 30 mg/kg)?
A: 0.40 ng/mL and 4.38 ng/mL and 0.15 ng/mL and 6.11 ng/mL and 48.38 ng/mL and 35.23 ng/mL

Q: What about the AAI plasma concentration ([1]; medium-dose (30 mg/kg oral), 24 h, individual rats M204,M205,M206,F204,F205,F206, 30 mg/kg) of the same compound?
A: 0.23 ng/mL and 8.71 ng/mL

Q: And the AUC0→t [1, 4]?
A: 4703.09 ng·h/mL and 3783.95 ng·h/mL and 3228.59 ng·h/mL and 3983.95 ng·h/mL and 4581.00 ng·h/mL

Q: And the CL/F [1, 4]?
A: 1.18 L/h and 0.80 L/h and 1.03 L/h and 1.79 L/h and 1.32 L/h and 1.20 L/h

Q: What about the Cmax [1, 4] of the same compound?
A: 2919.69 ng/mL and 1424.98 ng/mL and 2114.14 ng/mL and 2496.11 ng/mL and 2630.67 ng/mL and 3133.29 ng/mL

Q: What about the Vd [1, 4] of the same compound?
A: 5.23 L and 4.46 L and 4.94 L and 5.21 L (2×) and 2.97 L

Q: And the t1/2 [1, 4]?
A: 3.85 h and 3.33 h and 2.02 h and 2.73 h and 1.71 h and 3.08 h

Q: What about the tmax [1, 4] of the same compound?
A: 1.00 h

Q: What about the “fold increase in AUC0→t” value [1, 5] of the same compound?
A: 4.3 fold

Q: And the “fold increase in Cmax” value [1, 5]?
A: 3.7 fold

Q: What about the “passive diffusion ability across Caco-2 monolayers” value [2] of the same compound?
A: moderate passive diffusion ability
